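All cell lines were grown in 96-well plates and treated with compound for 48 hours. GI50 = concentration required for 50% inhibition of growth. TGI marks complete inhibition of growth.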
How the values were obtained:
Assay in all cases: NCI-60 cell line screen, 48 h
HCT-116 colon = test system: HCT-116 colon
EKVX NSCLC = test system: EKVX NSCLC
HOP-92 NSCLC = test system: HOP-92 NSCLC
SN12C renal = test system: SN12C renal
NCI-H23 lung = test system: NCI-H23 lung
U251 CNS = test system: U251 CNS
OVCAR-3 ovarian = test system: OVCAR-3 ovarian
NCI-H460 lung = test system: NCI-H460 lung
SK-MEL-2 melanoma = test system: SK-MEL-2 melanoma
RPMI-8226 leukemia = test system: RPMI-8226 leukemia

SMILES | TGI (HCT-116 colon) [µM] | TGI (EKVX NSCLC) [µM] | TGI (HOP-92 NSCLC) [µM] | TGI (SN12C renal) [µM] | TGI (NCI-H23 lung) [µM] | TGI (U251 CNS) [µM] | TGI (OVCAR-3 ovarian) [µM] | TGI (NCI-H460 lung) [µM] | TGI (SK-MEL-2 melanoma) [µM] | TGI (RPMI-8226 leukemia) [µM] | GI50 (HCT-116 colon) [µM] | GI50 (EKVX NSCLC) [µM] | GI50 (HOP-92 NSCLC) [µM] | GI50 (SN12C renal) [µM] | GI50 (NCI-H23 lung) [µM] | GI50 (U251 CNS) [µM] | GI50 (RPMI-8226 leukemia) [µM] | GI50 (OVCAR-3 ovarian) [µM] | GI50 (NCI-H460 lung) [µM] | GI50 (SK-MEL-2 melanoma) [µM]
NCc1ccc(C(=O)O)cc1 | > 100 | > 100 | > 100 | > 100 | > 100 | > 100 | > 100 | > 100 | – | – | – | – | – | – | – | – | – | – | – | –
CCO/N=[N+](\[O-])N(CC)CC | > 100 | > 100 | > 100 | > 100 | > 100 | – | > 100 | > 100 | > 100 | – | – | – | – | – | – | – | – | – | – | –
COc1cc(C2c3cc4c(cc3[C@@H](Nc3cccc(C(C)=O)c3)C3COC(=O)[C@H]23)OCO4)cc(OC)c1O (stereo partly specified) | 7.81 | > 22.3 | 14.8 | – | 3.14 | 9.97 | 13.9 | 1.07 | 7.43 | 2.21 | – | – | – | – | – | – | – | – | – | –
CC[n+]1c(/C=C/c2ccc(N(CCCl)CCCl)cc2)ccc2cc(NC(=O)/C=C/c3ccccc3)ccc21 | 1.34 | 4.76 | 1.07 | 1.52 | 1.98 | 0.619 | 11.4 | 1.36 | 1.27 | 0.696 | – | – | – | – | – | – | – | – | – | –
ClCc1c(Cl)c(Cl)c(Cl)c(CCl)c1Cl | 3.17 | 4.15 | 3.15 | 4.03 | 6.67 | 3.08 | 3.26 | 3.39 | 5.07 | 4.24 | 1.71 | 1.81 | 1.55 | 1.91 | 2.3 | 1.71 | 1.86 | 1.86 | 1.79 | 2.2
CN(C)c1ccc(N=Nc2ccccn2)cc1 | > 100 | > 100 | > 100 | > 100 | 83.2 | 33 | > 100 | > 100 | > 100 | > 100 | – | – | – | – | – | – | – | – | – | –
Brc1ccccc1-c1ncc(-c2ccccc2)o1 | > 100 | > 100 | 46.3 | > 100 | > 100 | 44.2 | 89.6 | > 100 | 89.9 | 48.8 | – | – | – | – | – | – | – | – | – | –
COc1ccc(-c2cc(N3CCN(c4ccccc4)CC3)c(C#N)c(=O)o2)cc1 | > 100 | > 100 | > 100 | > 100 | > 100 | > 100 | – | > 100 | 53.6 | > 100 | – | – | – | – | – | – | – | – | – | –
COc1ccc(NC(=O)/C(CC2=Nc3ccc([N+](=O)[O-])cc3NC2O)=N\NC(=O)C[N+](C)(C)C)c(OC)c1 (stereo unspecified) | > 100 | > 100 | > 100 | > 100 | > 100 | > 100 | > 100 | > 100 | > 100 | – | – | – | – | – | – | – | – | – | – | –
CCOC(=O)/C=C(\C)c1ccc(OC)cc1 | > 100 | > 100 | > 100 | > 100 | > 100 | > 100 | – | > 100 | > 100 | > 100 | – | – | – | – | – | – | – | – | – | –
CC(C)C[P+](c1ccccc1)(c1ccccc1)c1ccccc1 | > 100 | 30 | 26.3 | > 100 | > 100 | > 100 | 84.6 | > 100 | 41.7 | 0.033 | – | – | – | – | – | – | – | – | – | –
C=C1C(=O)OC2C1CC(O)/C(C)=C\CCC1(C)OC21 (stereo unspecified) | > 100 | > 100 | > 100 | – | > 100 | 54.8 | 34.1 | > 100 | 44.5 | 65.4 | – | – | – | – | – | – | – | – | – | –
Cc1nc2ccccc2c(=O)[nH]1 | > 100 | > 100 | > 100 | > 100 | > 100 | > 100 | > 100 | > 100 | > 100 | > 100 | – | – | – | – | – | – | – | – | – | –
N#Cc1c(NC(=S)NC(=O)c2ccccc2)nc2c(c1-c1ccccc1)CCCC2 | > 100 | – | – | – | > 100 | > 100 | > 100 | > 100 | – | > 100 | – | – | – | – | – | – | – | – | – | –
CC(C)(Br)C1(O)CCCN1C(=O)c1ccccc1 (stereo unspecified) | > 100 | > 100 | > 100 | > 100 | > 100 | > 100 | > 100 | > 100 | > 100 | – | – | – | – | – | – | – | – | – | – | –
CCC(C)C(=O)c1c(O)c(C/C=C(\C)CCC=C(C)C)c(O)c2c(C(O)CC)cc(=O)oc12 (stereo unspecified) | 2.21 | 10.1 | 5.47 | 8.26 | 3.89 | 9.67 | 12.6 | 7.23 | 3.83 | 3.51 | – | – | – | – | – | – | – | – | – | –
COc1ccc(NC(=O)/C(=C/c2ccc(N(CCC#N)CCC#N)cc2)NC(=O)c2cc([N+](=O)[O-])ccc2Cl)cc1 | > 100 | > 100 | > 100 | > 100 | > 100 | > 100 | > 100 | – | > 100 | > 100 | – | – | – | – | – | – | – | – | – | –
NCc1ccccc1C1CSCSC1 | > 100 | – | – | > 100 | > 100 | > 100 | > 100 | > 100 | > 100 | – | – | – | – | – | – | – | – | – | – | –
O=[N+]([O-])c1cn[n+]([O-])c2ccccc12 | 2.62 | 26.1 | 28.4 | 21.5 | 36.1 | 15 | 7.28 | 24.5 | – | 7.37 | – | – | – | – | – | – | – | – | – | –
